Positions of bridges follow the written chain, without caps; N, C: chain ends. Non-standard residues stand in square brackets, D forms with d. Residues, ends and D or L forms follow the SMILES beside them. *: point of attachment. Pen = CC(C)(S)[C@H](N)C(=O)O; PhAc = O=C(Cc1ccccc1)*
Target: VLA-4 (Homo sapiens, UniProt P05556+P13612)
Assay: In vitro binding assay: 51Cr-labeled Jurkat cells to solid phase-bound CS-1 peptide (SEQ ID NO:5)
Format: cell-based
Design: inflammatory cells that contain the VLA-4 receptor [Jurkat cells; host or cells: Jurkat cells (human T lymphoblastic line)
Conditions: for Relative Potency: CS-1; for Potency in inhibiting Jurkat cell binding to CS-1 relative to standard 10-mer of SEQ ID NO:6: times/fold more potent than SEQ ID NO:6
Experimental: Binding inhibition is measured here as a concentration of peptide that inhibits one-half the binding between a standard number of Jurkat cells and a standard amount of CS-1 peptide bound to the surface of a microtiter plate well. Those concentrations are conveniently expressed as IC50 values, smaller numbers indicating a lower concentration required to inhibit 50 percent binding and therefore greater potency. Further specifics of this assay are provided hereinafter.
Jurkat cells (ATCC TIB 152), a human T lymphoblastic line, labeled with ^51 chromium were used to assay in vitro binding inhibition provided by various peptides discussed herein.
The plates were prepared as follows: The 25-mer CS-1 peptide (SEQ ID NO:5) dissolved at 0.5-1 μg/ml in a buffer of 0.1M NaHCO3 at pH 9.5 that also contained 10 μg/ml of bovine serum albumin (BSA) or a conjugate of the CS-1 peptide linked to ovalbumin (CS-1-OVA) dissolved at 1-2.5 μg/ml in the same buffer was used as the substrate. Each well of the microtiter plates was coated with 50 μl of substrate or buffer alone for controls. The wells were permitted to dry out completely and were then rinsed twice with PBS at pH 7.4. Non-specific binding sites of each well were then blocked using 200 μl per well of RPMI/1 percent BSA for two hours at room temperature. Both solid phase-affixed substrates provided similar results.
Jurkat cells (3-5×10^6 cells) were placed into a 15 ml FALCON™ round-bottom tube with a cap. The tube was centrifuged, and the extra medium was then removed.
Two hundred microliters of a ^51 Cr labeling solution were added to the centrifuged cells and maintained in contact with the cells for 90-120 minutes in a warm room. This procedure typically provides about 50,000-100,000 cpm/well with about 80-100 percent cell viability. Longer contact times provide a greater amount of labeling but lower cell viability.
The labeled cells were washed with (i) complete medium, (ii) 1mM EDTA/PBS and then (iii) RPM1/1 percent BSA free of serum components. The cells were centrifuged after each washing. The cells were finally resuspended in serum-free RPMI/1 percent BSA at a concentration of 1×10^6 viable cells/ml, which provides a concentration that is diluted by one-half in the assay.
Cyclic inhibitor peptides were prepared as stock solutions at 20 mg/ml in DMSO in 1.5 ml cryogenic screwcap vials, and were stored at -70° C. Using FLOW™ round-bottom or V-bottom microtiter plates, the inhibitor peptides were prepared at twice the assay concentration in RPMI/1 percent BSA at 60 μl/well.
Four initial dilutions were typically used.
The ^51 Cr-labeled cells (1×10^6 cells at 60 μl/well) were then admixed with the diluted cyclic peptide solutions. The admixtures were maintained at room temperature (about 22° C.) for 30 minutes.
One hundred microliters of each inhibitor peptide/cell admixture were transferred to the substrate-coated wells. This was done in triplicate for each dilution. The resulting plates were incubated for 30 minutes at 37° C. and then washed gently three times with RPMI/1 percent BSA at 200 μl/well. Binding was observed microscopically, particularly after the second wash.
The bound cells were then lysed by the addition of a 0.5 percent solution of sodium dodecylsulfate in water at 100 μl/well. The resulting solutions were then processed for counting and calculation of IC50 values following usual procedures. Appropriate positive and negative controls were used with each plate so that the results of separate assays could be normalized and compared.
The potency data of Table 1 and Table 2 are so normalized. The absolute IC50 value for the peptide of SEQ ID NO:7 is 0.3 μM.

[1] = Table 2, normalized IC50 potency relative to standard peptide SEQ ID NO:6, Jurkat cells
[2] = Table 1, normalized IC50 potency relative to standard peptide SEQ ID NO:6 (=1), Jurkat cells

VLA-4, sequence (P13612 34-1032): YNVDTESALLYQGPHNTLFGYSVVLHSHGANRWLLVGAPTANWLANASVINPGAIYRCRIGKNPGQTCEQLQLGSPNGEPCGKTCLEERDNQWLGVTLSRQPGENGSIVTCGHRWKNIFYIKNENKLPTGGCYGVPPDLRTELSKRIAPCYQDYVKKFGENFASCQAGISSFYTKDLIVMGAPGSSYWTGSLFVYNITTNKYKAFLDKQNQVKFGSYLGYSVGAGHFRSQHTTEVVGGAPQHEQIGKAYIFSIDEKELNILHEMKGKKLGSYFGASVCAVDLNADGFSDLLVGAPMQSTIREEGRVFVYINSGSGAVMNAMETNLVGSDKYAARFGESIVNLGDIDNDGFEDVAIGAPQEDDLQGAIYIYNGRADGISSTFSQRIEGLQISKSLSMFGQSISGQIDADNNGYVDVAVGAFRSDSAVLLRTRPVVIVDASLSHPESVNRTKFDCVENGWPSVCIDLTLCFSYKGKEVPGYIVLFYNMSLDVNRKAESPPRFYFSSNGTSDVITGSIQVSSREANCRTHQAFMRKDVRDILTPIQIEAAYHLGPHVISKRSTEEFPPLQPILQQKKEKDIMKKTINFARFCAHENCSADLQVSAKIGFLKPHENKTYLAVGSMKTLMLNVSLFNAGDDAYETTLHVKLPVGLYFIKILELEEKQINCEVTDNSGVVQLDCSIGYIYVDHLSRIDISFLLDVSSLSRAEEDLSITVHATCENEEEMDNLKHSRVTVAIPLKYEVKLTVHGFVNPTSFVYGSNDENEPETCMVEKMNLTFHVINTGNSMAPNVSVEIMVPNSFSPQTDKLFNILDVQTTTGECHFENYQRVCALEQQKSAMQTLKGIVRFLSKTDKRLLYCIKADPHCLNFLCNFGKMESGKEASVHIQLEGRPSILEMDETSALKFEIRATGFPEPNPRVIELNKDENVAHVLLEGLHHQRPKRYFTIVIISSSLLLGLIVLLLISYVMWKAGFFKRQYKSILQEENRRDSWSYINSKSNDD
VLA-4, sequence (P05556 21-798): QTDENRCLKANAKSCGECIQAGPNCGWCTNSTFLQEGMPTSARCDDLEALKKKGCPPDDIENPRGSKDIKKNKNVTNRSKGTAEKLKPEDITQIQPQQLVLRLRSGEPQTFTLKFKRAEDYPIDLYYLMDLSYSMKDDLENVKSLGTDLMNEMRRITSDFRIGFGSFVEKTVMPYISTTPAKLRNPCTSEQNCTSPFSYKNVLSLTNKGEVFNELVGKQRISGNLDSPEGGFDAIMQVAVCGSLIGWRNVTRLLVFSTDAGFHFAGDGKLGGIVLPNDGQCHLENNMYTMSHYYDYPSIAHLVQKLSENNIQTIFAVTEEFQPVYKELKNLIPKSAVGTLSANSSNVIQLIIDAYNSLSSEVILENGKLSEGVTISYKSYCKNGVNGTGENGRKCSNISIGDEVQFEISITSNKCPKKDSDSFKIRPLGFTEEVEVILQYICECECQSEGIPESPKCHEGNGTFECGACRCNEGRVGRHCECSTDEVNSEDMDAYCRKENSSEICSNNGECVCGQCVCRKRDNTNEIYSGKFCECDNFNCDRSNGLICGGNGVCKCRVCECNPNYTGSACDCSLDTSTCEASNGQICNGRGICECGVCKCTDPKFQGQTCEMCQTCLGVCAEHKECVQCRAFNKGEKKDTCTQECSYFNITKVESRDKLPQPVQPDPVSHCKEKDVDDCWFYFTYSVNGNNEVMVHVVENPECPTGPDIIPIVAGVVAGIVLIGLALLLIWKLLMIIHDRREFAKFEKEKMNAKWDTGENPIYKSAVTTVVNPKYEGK

Structure (SMILES) | Relative Potency [2] | other results
CC(=O)N[C@H]1CSSC[C@@H](C(=O)N2CCC[C@@H]2C(N)=O)NC(=O)[C@H](CC(=O)O)NC(=O)[C@H](CC(C)C)NC1=O (Ac-CLDC[dP]-NH2; disulfide 1-4) | – | Relative Potency [1]: 0
CC(C)C[C@@H]1NC(=O)[C@H](Cc2ccccc2)NC(=O)[C@H](CCC(=O)O)NC(=O)[C@@H]2CCCN2C(=O)CNC(=O)[C@@H](N)CSSC[C@@H](C(N)=O)NC(=O)[C@@H]2CCCN2C(=O)[C@H](Cc2ccccc2)NC(=O)[C@H](CC(=O)O)NC1=O (H-CGPEFLDFPC-NH2; disulfide 1-10) | – | Relative Potency [1]: 6.26
NC(=O)[C@@H]1CSSC[C@H](NC(=O)[C@H](N)Cc2ccccc2)C(=O)N[C@@H](CC(=O)O)C(=O)N[C@@H](Cc2ccccc2)C(=O)N1 (H-[dF]CDFC-NH2; disulfide 2-5) | – | Relative Potency [1]: 3.13
CC1(C)SSC[C@H](C(N)=O)NC(=O)[C@H](Cc2ccccc2)NC(=O)[C@H](CC(=O)O)NC(=O)[C@H]1NC(=O)Cc1ccccc1 [.phi.AcJDFc-NH2] (PhAc-[Pen]DF[dC]-NH2; disulfide 1-4) | 4 | –
CC(=O)N[C@@H](CC(C)C)C(=O)N[C@@H](CC(=O)O)C(=O)N[C@@H](Cc1ccccc1)C(N)=O [AcLDF-NH2] (Ac-Leu-Asp-Phe-NH2) | < 1 | –
CC(=O)N[C@@H](CC(C)C)C(=O)N[C@@H](CC(=O)O)C(=O)N[C@H](C(N)=O)C(C)C [AcLDV-NH2, reference compound] (Ac-Leu-Asp-Val-NH2) | < 1 | Potency in inhibiting Jurkat cell binding to CS-1 relative to standard 10-mer of SEQ ID NO:6: about 1
CC(C)C[C@H](N)C(=O)N[C@@H](CC(=O)O)C(=O)N[C@@H](Cc1ccccc1)C(N)=O [LDF-NH2] (H-Leu-Asp-Phe-NH2) | 0 | –
CC(C)C[C@H](N)C(=O)N[C@@H](CC(=O)O)C(=O)N[C@H](C(N)=O)C(C)C [LDV-NH2, reference compound] (H-Leu-Asp-Val-NH2) | 0 | Potency in inhibiting Jurkat cell binding to CS-1 relative to standard 10-mer of SEQ ID NO:6: zero
CC(C)C[C@@H]1NC(=O)[C@H](Cc2ccccc2)NC(=O)[C@@H](N)CSSC[C@@H](C(N)=O)NC(=O)[C@@H]2CCCN2C(=O)[C@H](Cc2ccccc2)NC(=O)[C@H](CC(=O)O)NC1=O [SEQ ID NO:10, CFLDFPC-N2] (H-CFLDFPC-NH2; disulfide 1-7) | 253 | inhibition of binding to CS-1 (in words): excellent inhibitors; IC50 (Jurkat cells, solid phase-bound CS-1, read-out: absolute value of IC50): ~0.6 µM; Potency in inhibiting Jurkat cell binding to CS-1 relative to standard 10-mer of SEQ ID NO:6: about 253
CC(=O)N[C@H]1CSSC[C@@H](C(N)=O)NC(=O)[C@@H]2CCCN2C(=O)[C@H](Cc2ccccc2)NC(=O)[C@H](CC(=O)O)NC(=O)[C@H](CC(C)C)NC(=O)[C@H](Cc2ccccc2)NC1=O [SEQ ID NO:11, AcCFLDFPC-NH2] (Ac-CFLDFPC-NH2; disulfide 1-7) | 134 | –
NC(=O)[C@@H]1CSSC[C@H](NC(=O)[C@@H](N)Cc2ccccc2)C(=O)N[C@@H](CC(=O)O)C(=O)N[C@@H](Cc2ccccc2)C(=O)N2CCC[C@H]2C(=O)N1 [SEQ ID NO:12, FCDFPC-NH2] (H-FCDFPC-NH2; disulfide 2-6) | 131 | –
CC1(C)SSC[C@@H](C(N)=O)NC(=O)[C@H](Cc2ccccc2)NC(=O)[C@H](CC(=O)O)NC(=O)[C@H]1NC(=O)Cc1ccccc1 [SEQ ID NO:14, .phi.AcJDFC-NH2] (PhAc-[Pen]DFC-NH2; disulfide 1-4) | 94 | –
CC(C)C[C@@H]1NC(=O)[C@H](Cc2ccccc2)NC(=O)[C@@H](N)CSSC[C@@H](C(N)=O)NC(=O)[C@H]([C@@H](C)O)NC(=O)[C@H](CO)NC(=O)[C@@H]2CCCN2C(=O)[C@H](Cc2ccccc2)NC(=O)[C@H](CC(=O)O)NC1=O [SEQ ID NO:15, CFLDFPSTC-NH2] (H-CFLDFPSTC-NH2; disulfide 1-9) | 81 | –
CC(C)C[C@@H]1NC(=O)[C@H](Cc2ccccc2)NC(=O)[C@H](CCC(=O)O)NC(=O)[C@@H]2CCCN2C(=O)[C@@H](N)CSSC[C@@H](C(N)=O)NC(=O)[C@@H]2CCCN2C(=O)[C@H](Cc2ccccc2)NC(=O)[C@H](CC(=O)O)NC1=O [SEQ ID NO:16, CPEFLDFPC-NH2] (H-CPEFLDFPC-NH2; disulfide 1-9) | 56 | –
